How the values were obtained:
[1] = tested on: full-thickness wounds in diabetic pigs; assay: porcine diabetic (streptozotocin) wound healing model, full-thickness wounds, intradermal injections; format: in vivo; settings: for wound closure: both the higher (300 ng/mm^2) and lower (30 ng/mm^2) doses; for wound closure / wound healing (in words): diabetic pigs
Method: Odanacatib is a potent and selective inhibitor of cathepsin K and can be administered to promote wound healing in diabetic pigs. Pigs (3-4 months old) were rendered diabetic with intravenous injection of streptozotocin (75 mg/Kg). Four weeks following streptozotocin injections 6-10 full-thickness (one-inch square, ˜[…] thickness) wounds were created in two columns on each side of the dorsal thoracolumbar midline. […] Wounds were photographed prior to treatment and analyzed for wound closure rates.
Data are expressed as mean±SEM (n=8 for vehicle and 6 each for odanacatib treatment). […] Because some values are missing as we had euthanized one pig from each group on day 14 for molecular analysis, the data were analyzed by fitting a mixed model, rather than by repeated measures ANOVA. […]

[2] = tested on: cultured human fibroblasts; assay: in vitro monolayer wound-healing assay (cell migration under high glucose); format: cell-based; settings: high glucose 25 mM, 100 ng/ml inhibitor, 5 μg/ml hydroxyurea, 72 h after wounding
Method: Referring now to FIGS. 1A-1B, the in vitro monolayer wound-healing assay mimics cell migration during wound healing. An in vitro monolayer wound-healing assay in cultured human fibroblasts was used to test whether pharmacological inhibition of cathepsin K affected cell migration under high-glucose (25 mM) conditions. Mannitol was included to control for osmotic pressure and hydroxyurea to eliminate the potential effects of cell proliferation.
Referring again to FIGS. 1A-1B, inhibition of cathepsin reverses the inhibitory effect of high glucose (HG) on cell migration in a monolayer wound-healing assay. Confluent human fibroblasts were serum starved and subjected to a media containing low (5 mM, LG) or high (25 mM, HG) glucose. The cell monolayer was wounded with a linear scratch using a sterile pipette tip and treated with 100 ng/ml of cathepsin K inhibitor-II in the presence of 5 μg/ml hydroxyurea. At 0 time (upper left panel) and 72 h (lower left panel) after wounding, the cells were photographed using an inverted microscope equipped with a digital camera. Scale bar=600 μm. FIG. 1A. Representative phase-contrast images for each treatment group. FIG. 1B. Bar graph represents the percentage wound closure 72 h after wounding as measured using the NIH Image J software and represented as mean±SEM, n=6, *p<0.01 compared to LG; **p<0.05 compared to LG.

[3] = tested on: excisional skin wounds in genetically diabetic db/db mice; assay: excisional skin wound healing in genetically diabetic db/db mice, topical inhibitor; format: in vivo; settings: treated along the circumference of the wound
Method: FIG. 5 illustrates the effect of a topically delivered pharmacological inhibitor of cathepsin K on wound healing in genetically diabetic mice. Excisional skin wounds were created in genetically diabetic db/db mice and the wounds were treated along the circumference of the wounds with cathepsin K inhibitor II or vehicle. Wound healing was evaluated by measuring the wound closure rate and histomorphometric analysis. […] In contrast, wounds in the vehicle treated group remain unhealed during this time period. Heterozygous (db/db^+/−) mice were used as controls in these studies.

## CC(C)C[C@H](NC(=O)OCc1ccccc1)C(=O)NNC(=O)NNC(=O)[C@H](CC(C)C)NC(=O)[C@H](Cc1ccccc1)NC(=O)OC(C)(C)C [CatKI-II, 1-(N-Benzyloxycarbonyl-leucyl)-5-(N-Boc-phenylalanyl-leucyl) carbohydrazide]
[1]; Table 1, D 3, 30 vs. 300 ng/mm^2
  Tukey's multiple comparisons test, Summary: ns
[1]; Table 1, D 3, Vehicle vs. 300 ng/mm^2
  Tukey's multiple comparisons test, Summary: ns
[1]; Table 1, D 7, 30 vs. 300 ng/mm^2
  Tukey's multiple comparisons test, Summary: ns
[1]; Table 1, D 7, Vehicle vs. 300 ng/mm^2
  Tukey's multiple comparisons test, Summary: ns
[1]; Table 1, D 7, Vehicle vs. 30 μg/mm^2
  Tukey's multiple comparisons test, Summary: ns
[1]; Table 1, D 14, Vehicle vs. 300 ng/mm^2
  Tukey's multiple comparisons test, Summary: ns
[1]; Table 1, D 21, Vehicle vs. 300 ng/mm^2
  Tukey's multiple comparisons test, Summary: ns
[1]; Table 2, D 3, 30 vs. 300 ng/mm^2
  Tukey's multiple comparisons test, Summary: ns
[1]; Table 2, D 3, Vehicle vs. 300 ng/mm^2
  Tukey's multiple comparisons test, Summary: ns
[1]; Table 2, D 7, 30 vs. 300 ng/mm^2
  Tukey's multiple comparisons test, Summary: ns
[1]; Table 2, D 7, Vehicle vs. 300 ng/mm^2
  Tukey's multiple comparisons test, Summary: ns
[1]; Table 2, D 7, Vehicle vs. 30 μg/mm^2
  Tukey's multiple comparisons test, Summary: ns
[1]; Table 2, D 14, Vehicle vs. 300 ng/mm^2
  Tukey's multiple comparisons test, Summary: ns
[1]; Table 2, D 21, Vehicle vs. 300 ng/mm^2
  Tukey's multiple comparisons test, Summary: ns
[1]; day 21 post-wounding
  wound closure: ~93%
[1]
  wound closure / wound healing (in words): facilitate wound closure
[1]; listed as Cathepsin K inhibitor II
  wound closure / wound healing (in words): promotes wound healing
[1]; lower dose 30 ng/mm^2/wound, day 21 post-wounding
  wound area: improvement in wound healing: statistically significant improvement in wound healing compared to both vehicle and the higher dose
[2]
  fibroblast migration / monolayer wound closure: increased migration beyond that observed in the cells treated with a low-glucose media
[3]; day 12
  wound resolution: significant resolution of wound
[3]; day 15
  wound resolution: almost complete resolution

## CC(C)(F)C[C@H](N[C@@H](c1ccc(-c2ccc(S(C)(=O)=O)cc2)cc1)C(F)(F)F)C(=O)NC1(C#N)CC1 [odanacatib]
[1]; day 21 post-wounding
  wound closure: ~93%
